pEC50: −log10 of the molar value.
Columns and labels:
COP1 = target: T1, COP1 (Homo sapiens, UniProt Q8NHY2); assay: Western blot of COP1 level in HepG2 cells after compound treatment; format: cell-based; conditions: 5 μM, 24 hours
T1 construct: endogenous in cells; host or cells: HepG2
Method: HepG2 cells were treated with the compounds 5, 8, 11, 59, 62, 65, 91, 94 at 5 μM for 24 hours. After removing media from the cells, the wells were washed with 1×PBS twice to remove any remnant media. Cells were then lysed in lysis buffer containing 50 mM Tris-HCl (pH 7.4), 100 mM NaCl, 1 mM EDTA, 1 mM EGTA, 1% Triton X-100 and protease inhibitor cocktail 1 (Millipore, Billierica, MA, USA). Following centrifugation at 20,000 g for 20 minutes, the protein solution was extracted from the cells. Protein was estimated using Bradford assay. Bradford's reagent (BioRad) was diluted in 1:4 ratio in double distilled water. 2 μl of protein sample was added to 100 μl of the reagent and absorbance was measured at 595 nm. 30 μg of protein was diluted in lysis buffer. 1X loading buffer diluted from 5X stock containing 250 mM Tris-HCl (pH 6.8), 10% SDS, 50% glycerol, 0.1% bromophenol Blue and 10% β-mercaptoethanol was added. The protein samples were then heated at 95° C. for 10 minutes, cooled and centrifuged at 12,000 g for 2 minutes prior to loading.
For western blotting, the proteins were resolved in 10% SDS PAGE (discontinuous buffer system). 1X running buffer containing SDS, Tris Base and Glycine was used to run the gel at 80V for approximately 2 hours. Transfer was done using PVDF membrane (Millipore) having pore size of 0.45 μm. 1X transfer buffer containing Tris-Base, Glycine and 20% methanol was used for wet transfer. Transfer was done at 90V for 3 hours. Following transfer, the PVDF membrane containing the proteins were washed in 1×PBST comprising of 1×PBS and 1% Tween 20 (Sigma Aldrich). The membrane was then incubated for 1 hour at room temperature in 5% skim milk powder to block the non-specific sites. Following multiple washes with 1×PBST to wash away any remaining blocking buffer, the required primary antibody (COP1 [BethylLaboraties], ATGL [Cell Signalling Technology] or Actin[Cell Signalling Technology]) prepared with 1×PBST, 1% Bovine Serum Albumin and 0.04% Sodium Azide was added to the membrane and incubated overnight at 4° C. The next day, the membrane was again washed multiple times with 1×PBST to remove any unbound primary antibody. The membrane was then incubated with goat anti-rabbit secondary antibody (Genei) for 1 hour at room temperature and washed again for multiple times with 1×PBST. The membrane was then developed using Clarity™ ECL Western Blotting Substrate (BioRad) and viewed in ChemiDoc (BioRad).

[1] = Determination of EC50 (in-vitro)
ATGL = assay: Fold change in ATGL by densitometric analysis; format: cell-based; conditions: fold change of ATGL with respect to control, normalized with actin
Method: Densitimetric analysis was performed by image J to calculate the fold change of ATGL with respect to control. The values were normalized with actin.

[2] = Metabolic stability using human liver microsomes (HLM); format: in vitro ADME
Method: 1 mM stock solution of test compound was prepared in DMSO and diluted with Acetonitrile:Water (1:1) to get a 100 μM working concentration. 100 mL of Milli Q water was added to K2HPO4 (1.398 g) and KH2PO4 (0.27 g) to get final pH 7.4 solution of potassium phosphate buffer. […] The above mixture was pre incubated for 15 minutes at 37° C. After pre incubation, 32.5 μL of the mixture was added to 17.5 μL of buffer, this was incubated for 60 minutes at 37° C. [60 min Without Cofactor (NADPH)]. 16.25 μL of the pre incubated mixture and 8.75 μL of cofactor was added to 150 μL of acetonitrile containing internal standard [0 min Sample]. 62 μL of cofactor was added to remaining pre incubation mixture [Incubation mixture]. 25 μL of incubation mixture at 0, 5, 15, 30, 60 min and 60 min without cofactor were precipitated with 150 μL of acetonitrile containing internal standard, vortexed and centrifuged at 4000 rpm at 4° C. for 20 minutes. 120 μL of supernatant was diluted with 120 μL of water and analyzed by LC-MS/MS [sample preparation].

Plasma stability assay = format: in vitro ADME; conditions: 1 μM, 37° C.
Method: 1 mM Stock of test compound was prepared from 10 mM initial stock solution of compounds by diluting 10 μL of 10 mM stock with 90 μL of DMSO. Then 10 μL of 1 mM stock was diluted with 90 μL of DMSO to give 100 μM concentration. The frozen plasma was thawed at room temperature and centrifuged at 1400 rpm at 4° C., for 15 minutes. Approximately 90% of the clear supernatant fraction was transferred to a separate tube and was used for the assay. Final working stock of 1 μM was prepared by diluting 3 μL of 100 μM with 297 μL of plasma. Plasma containing the test compound was incubated for 120 min at 37° C. in shaker with 500 rpm. 50 μL of aliquot of sample at 0, 15, 30, 60 and 120 minutes were precipitated with 150 μL of acetonitrile containing internal standard and centrifuged at 4000 rpm at 4° C. for 20 minutes. 120 μL of supernatant was diluted with 120 μL of water and analysed by LC-MS/MS.

T1 sequence (Q8NHY2 whole entry): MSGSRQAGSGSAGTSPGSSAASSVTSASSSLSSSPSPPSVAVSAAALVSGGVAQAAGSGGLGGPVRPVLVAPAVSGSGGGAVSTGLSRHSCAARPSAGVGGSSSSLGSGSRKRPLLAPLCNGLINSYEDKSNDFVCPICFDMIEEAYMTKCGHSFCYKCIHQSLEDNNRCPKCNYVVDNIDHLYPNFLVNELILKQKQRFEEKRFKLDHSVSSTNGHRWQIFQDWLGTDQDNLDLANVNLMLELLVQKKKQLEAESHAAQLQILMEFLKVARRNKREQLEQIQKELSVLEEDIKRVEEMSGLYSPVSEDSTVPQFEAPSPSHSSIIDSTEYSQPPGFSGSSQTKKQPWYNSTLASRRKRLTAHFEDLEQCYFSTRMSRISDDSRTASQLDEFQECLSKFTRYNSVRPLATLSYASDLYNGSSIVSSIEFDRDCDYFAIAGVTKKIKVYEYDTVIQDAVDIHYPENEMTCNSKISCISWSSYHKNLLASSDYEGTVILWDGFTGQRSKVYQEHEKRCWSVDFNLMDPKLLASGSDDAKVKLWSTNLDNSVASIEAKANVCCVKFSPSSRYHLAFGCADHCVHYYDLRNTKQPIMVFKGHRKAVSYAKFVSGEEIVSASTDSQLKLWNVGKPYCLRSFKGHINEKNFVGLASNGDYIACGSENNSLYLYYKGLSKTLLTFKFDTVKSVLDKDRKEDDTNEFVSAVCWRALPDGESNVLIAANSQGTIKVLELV

Row | SMILES | stabilization of COP1 (Western Blot) (COP1) | pEC50 [1] | Fold change (ATGL) | % QH (Well stirred model) [2] [%] | Mean % remaining at 2 hrs in human Plasma (Plasma stability assay) [%]
1 | COCCn1c(=O)c2cc(NC(=O)Nc3cccc(C(C)=O)c3)ccc2n(CCN2CCCCC2)c1=O [Compound 62, 1-(3-acetylphenyl)-3-(3-(2-methoxyethyl)-2,4-dioxo-1-(2-(piperidin-1-yl)ethyl)-1,2,3,4-tetrahydroquinazolin-6-yl)urea] | stabilize the COP1 | 7.34 | 1.55 | 56.74 | 26.18
2 | COCCn1c(=O)c2cc(NC(=O)Nc3cccc(C(C)=O)c3)ccc2n(CCCN2CCOCC2)c1=O [Compound 94, 1-(3-acetylphenyl)-3-(3-(2-methoxyethyl)-1-(3-morpholinopropyl)-2,4-dioxo-1,2,3,4-tetrahydroquinazolin-6-yl)urea] | stabilize the COP1 |  | 0.84 | 59.60 | 51.74
3 | COCCn1c(=O)[nH]c2ccc(NC(=O)Nc3cccc(C(C)=O)c3)cc2c1=O [Compound 5, 1-(3-acetylphenyl)-3-(3-(2-methoxyethyl)-2,4-dioxo-1,2,3,4-tetrahydroquinazolin-6-yl)urea] | stabilize the COP1 |  | 1.44 | 7.60 | 97.40
